Assay results as given in US5182258A, “Systemic delivery of polypeptides through the eye” (Orbon Corporation, priority 1989, dated 1993).

Assays:
[1] = for effect of peptidase inhibitors on systemic absorption of TRH: 4 mM, Bestatin, 60 uM, D,L-Thiorphan, 0.6 uM, ocular TRH
[2] = Absorption of insulin into systemic circulation via the eyes or i.v. (125I blood level); assay type: in vivo, rabbit; conditions: ocular insulin plus leucine-leucine
[3] = Enkephalin-equivalent remaining in eye tissues at the end of 12 hr experiment
[4] = Blood enkephalin-equivalent concentration after ocular or i.v. enkephalin

O=C(O)CNC(=O)C(CS)Cc1ccccc1 (racemic) [D,L-Thiorphan, D,L-thiorphan]
effect of peptidase inhibitors on systemic absorption of TRH ([1]; Leu-Leu): did not significantly enhance the systemic absorption of TRH

CC(C)C[C@H](NC(=O)CNC(=O)[C@H](Cc1ccc(O)cc1)NC(=O)[C@H](CO)NC(=O)[C@H](Cc1c[nH]c2ccccc12)NC(=O)[C@H](Cc1cnc[nH]1)NC(=O)[C@@H]1CCC(=O)N1)C(=O)N[C@@H](CCCNC(=N)N)C(=O)N1CCC[C@H]1C(=O)NCC(N)=O [LHRH, luteinizing hormone-releasing hormone]
eye drop concentration sufficient to reach therapeutic effective blood concentration ([1]; rabbit, in vivo): 0.005%

CC(C)C[C@H](NC(=O)[C@@H](N)CC(C)C)C(=O)O [Leu-Leu, leucine-leucine]
effect of added peptidase inhibitor on insulin absorption [2]: did not significantly improve insulin absorption
effect of peptidase inhibitors on systemic absorption of TRH ([1]; Leu-Leu): did not significantly enhance the systemic absorption of TRH
effect of peptidase inhibitor on systemic absorption of LHRH ([1]; Leu-Leu, 5 mM, ocular LHRH): did increase the systemic absorption of LHRH significantly
effect of peptidase inhibitor on systemic absorption of glucagon ([1]; Leu-Leu, 5 mM, ocular glucagon): did not increase the systemic absorption of glucagon

NC(=O)[C@@H]1CCCN1C(=O)[C@H](Cc1cnc[nH]1)NC(=O)[C@@H]1CCC(=O)N1 [TRH, Thyrotrophin-releasing hormone]
eye drop concentration giving a therapeutic blood concentration ([1]; rabbit, in vivo): ≥ 0.0025%
peak blood TRH concentration ([1]; rabbit, in vivo): 138 ng/mL
steady state blood TRH concentration after the peak ([1]; rabbit, in vivo): 60 ng/mL
time from the peak to steady state ([1]; rabbit, in vivo): 9 h
time to peak ([1]; rabbit, in vivo): 60 min

CC(C)C[C@H](NC(=O)[C@H](Cc1ccccc1)NC(=O)CNC(=O)CNC(=O)[C@@H](N)Cc1ccc(O)cc1)C(=O)O [enkephalin, Leucine-enkephalin (5-L-leucine)]
actual concentration of enkephalin in the lens compared with other tissues [3]: lowest among all tissues
Tx of decline of blood concentration ([4]; 50 ug i.v.): less than 30 min
lowest point of blood concentration ([4]; 50 ug i.v., in 5 hrs): 22 ng/mL
plateau blood enkephalin concentration ([4]; 1% enkephalin instilled into eye): 72 ng/mL
plateau blood enkephalin concentration ([4]; 5% enkephalin instilled into eye): 233 ng/mL
